We go through one molecule from patent publication US7767713B2, “Linoleic acid active agents for enhancing probability of becoming pregnant” (Palo Alto Investors, priority 2004, dated 2010).

In assay [1] the test system is female patients unable to achieve a successful pregnancy. In words: Open-label oral treatment of infertility clinic patients. It counts as in vivo, human. Conditions: oral form, 100 mg-5 g/day for three months, patients unable to achieve pregnancy for at least six months. How it is done: Several patients from an active infertility clinic population are selected for open-label treatment with linoleic acid. All female patients have been unable to achieve a successful pregnancy for at least six months. Linoleic acid is formulated into a pharmaceutical oral form at a dosage of 100 mg-5 g/day for three months.

The subject of assay [2] is uterine lining Th1/Th2 balance. In words: Animal model, immune function of the uterine lining. The format is in vivo. Particulars: intravaginal injection, intrauterine injection or soaked vaginal sponge; versus sterile saline control animals. How it is done:
An animal model is used to determine the effects of linoleic acid on immune function of the uterine lining. Linoleic acid is delivered via several different methods—direct injection of the linoleic acid formulation into the vagina, direct injection of linoleic acid formulation into the uterus, linoleic acid soaked into a sponge and placed into the vagina. Control animals have sterile saline instilled in place of linoleic acid. The animals are then sacrificed, and the uterine lining is analyzed for changes in immunologic activity.

Molecules are shown by their SMILES.

`CCCCC/C=C\C/C=C\CCCCCCCC(=O)O` [linoleic acid, Linoleic acid]: the Successful pregnancies result in assay [1] was “Successful pregnancies are seen in at least one patient”. For the same molecule, in assay [2], the “Changes in Th1/Th2 balance of uterine lining” value was “Changes in Th1/Th2 balance are seen”.
